In patent US20040198815A1, “Antimicrobial and anticancer properties of methyl-beta-orcinolcarboxylate from lichen (Everniastrum cirrhatum)” (priority 2003, published 2004):
In brackets after ≈: the same amount, converted by molar mass.

Assays:
[1] = system: Candida albicans MTCC 1637 (Wild Type); assay: disc diffusion assay, wild type Candida albicans; type: cell-based; conditions: for zone of inhibition at 80 µg/disc: MTCC1637, read-out: Net zone of growth inhibition
Procedure: (§1) The drug resistance property of the mutants was studied by standardized disc diffusion assay (Bauer at al 1966, American Journal of Clinical Pathology 45: 493-496) with slight modifications. The discs were prepared (5 mm diameter made of Whatman #3 filter paper) by impregnating 8 μl of test compound and placing them on pre-inoculated agar surface.
(§2) A disc containing only the solvent was used as the control. A zone of growth inhibition surrounding the disc is indicative of the […] nature of the strains to antibiotics.

[2] = system: Candida albicans mutant strain Clo 28R; assay: microbe, parasite or virus in culture; type: cell-based
Procedure: (§3) C. albicans was grown to log phase in Sabouraud's dextrose broth (5 ml) for 48 hrs at 37° C. in a shaker at 250 rpm. The cells were pelleted by centrifugation at 5000 rpm at 4° C. and the pellet was dissolved in 5 ml phosphate buffered saline PBS (6.8 pH). The culture was divided in to five groups of 1 ml each in eppendrof tubes.
(§4) Ethyl methane sulfonate (EMS) was added to each of the culture tube @ 0.1% (v/v) and allowed to grow for 40 min. Then the mutagen was completely washed off thrice by repeatedly pelleting the cells and re-dissolving in PBS. The mutagenized stocks was then diluted in Sabouraud's dextrose broth two folds and allowed to grow for 6 hrs at 37° C. in a shaker at 250 rpm. Titre of the cells before treatment with EMS and immediately after treatment with EMS was calculated to obtain the killing percentage in each of the five tubes. The mutagenized and fixed cultures were then plated in Sabouraud's dextrose agar containing different concentration of amphotericin, nystatin and clotrimazole.
(§5) The colonies found growing after 5th day from each of the five mutagenized stocks were then purified thrice separately by streaking in the same medium containing the antibiotics.

[3] = system: Candida albicans mutant strain Clo 31R; assay: microbe, parasite or virus in culture; type: cell-based
Procedure: as §3, §4, §5

[4] = system: Candida albicans mutant strain NYS 26R; assay: microbe, parasite or virus in culture; type: cell-based
Procedure: as §3, §4, §5

[5] = system: Candida albicans mutant strain NYS 4R; assay: microbe, parasite or virus in culture; type: cell-based
Procedure: as §3, §4, §5

[6] = system: Candida albicans mutant strain Amph 100R; assay: disc diffusion assay, mutant Amph 100R; type: cell-based; conditions: for zone of inhibition at 80 µg/disc: Candida albicans, read-out: Net zone of growth inhibition
Procedure: as §3, §4, §5

[7] = system: Saccharomyces Cerevisiae ABC 287 (WT); assay: disc diffusion assay, wild type Saccharomyces cerevisiae; type: cell-based; conditions: 80 μg/disc; for zone of inhibition at 80 µg/disc: read-out: Net zone of growth inhibition
Procedure: as §1, §2
(§6) The pure compound isolated was then tested against polyene and azole resistant strains of Candida albicans. […] In another experiment well-defined amphotericin and nystatin resistant strains of Saccharomyces cerevisiae were used in the assay. These strains designated as erg 2 and erg 6 carry mutations in the ergosterol biosynthetic pathway and therefore are unable to synthesize ergosterol which are the binding site of polyene drugs. Therefore absence of erostreol results in polyene resistance.

[8] = system: Saccharomyces cerevisiae erg 2 (amphotericin and nystatin resistant); assay: disc diffusion assay, S. cerevisiae erg 2; conditions: 80 μg/disc
Procedure: as §1, §2, §6

[9] = system: Saccharomyces cerevisiae erg 6 (amphotericin and nystatin resistant); conditions: 80 μg/disc
Procedure: as §1, §2, §6

[10] = system: Candida albicans mutant strain Amph A8R; assay: microbe, parasite or virus in culture; type: cell-based
Procedure: as §3, §4, §5

[11] = system: Candida albicans mutant strain Amph C6R; assay: microbe, parasite or virus in culture; type: cell-based
Procedure: as §3, §4, §5

[12] = system: Candida albicans mutant strain Amph C7R; assay: microbe, parasite or virus in culture; type: cell-based
Procedure: as §3, §4, §5

[13] = system: Candida albicans mutant strain Amph D1R; assay: microbe, parasite or virus in culture; type: cell-based
Procedure: as §3, §4, §5

[14] = system: liver (WRL-68) cancer cell line; assay: MTT cytotoxicity testing in vitro, WRL-68; type: cell-based; conditions: Homo sapiens, WRL68, 6 h exposure then 48 h
Procedure: (§7) Cytotoxicity testing in vitro was done by the method of Woerdenbag et al.,1993; J.Nat.Prod. 56 (6): 849-856). 2×10^3 cells/well were incubated in the 5% CO2 incubator for 24 h to enable them to adhere properly to the 96 well polysterene microplate (Grenier, Germany). Test compounds dissolved in 100% DMSO (Merck, Germany) in at least five doses were added and left for 6 h after which the compound plus media was replaced with fresh media and the cells were incubated for another 48 h in the CO2 incubator at 37° C. […] Sigma M 2128] was added, and plates were incubated at 37° C. for 4 h. 100 μl dimethyl sulfoxide (DMSO, Merck, Germany) were added to all wells and mixed thoroughly to dissolve the dark blue crystals. After a few minutes at mom temperature to ensure that all is crystals were dissolved, the plates were read on a SpectraMax 190 Mcroplate Elisa reader (Molecular Devices Inc., USA), at 570 nm. Plates were normally read within 1 h of adding the DMSO.

[15] = system: (MCF-7) cancer cell line; assay: MTT cytotoxicity testing in vitro, MCF-7; type: cell-based; conditions: Homo sapiens, MCF7, 6 h exposure then 48 h
Procedure: as §7

[16] = system: ovarian (MCF-7) cancer cell line; assay: MTT cytotoxicity testing in vitro, MCF-7; type: cell-based; conditions: Homo sapiens, MCF7, 6 h exposure then 48 h
Procedure: as §7

[17] = system: ovarian (PA-1) cancer cell line; assay: MTT cytotoxicity testing in vitro, PA-1; type: cell-based; conditions: Homo sapiens, 6 h exposure then 48 h
Procedure: as §7

[18] = system: colon (Caco-2) cancer cell line; assay: MTT cytotoxicity testing in vitro, Caco-2; type: cell-based; conditions: Homo sapiens, Caco2, 6 h exposure then 48 h
Procedure: Cytotoxicity testing in vitro was done by the method of Woerdenbag et al.,1993; J.Nat.Prod. […] 2×10^3 cells/well were incubated in the 5% CO2 incubator for 24 h to enable them to adhere properly to the 96 well polysterene microplate (Grenier, Germany). […] Then, 10 μl MTT [3-(4,5-dimethylthiazol-2-yl)-2,5-diphenyltetrazolium bromide; Sigma M 2128] was added, and plates were incubated at 37° C. for 4 h. 100 μl dimethyl sulfoxide (DMSO, Merck, Germany) were added to all wells and mixed thoroughly to dissolve the dark blue crystals. […] Plates were normally read within 1 h of adding the DMSO.

[19] = system: oral (KB 403) cancer cell line; assay: MTT cytotoxicity testing in vitro, KB 403; type: cell-based; conditions: Homo sapiens, KB403, 6 h exposure then 48 h
Procedure: as §7

[20] = in-vitro ergosterol binding assay
Excerpt: Therefore, the ability of lichen compounds to bind to ergosterol was also investigated using in-vitro ergosterol binding assay (Antonio & Molinski 1993; J.Natl.Prod.56:54-61).

[21] = system: polyene and azole resistant strains of Candida albicans; type: cell-based
Procedure: Ethanol extract was prepared and tested against Candida albicans MTCC 1637 (equivalent to ATCC 18804) the fungi that cause different forms of candidiasis in humans and drug resistant mutants of the fungi.

[22] = system: polyene drug resistant Saccharomyces cerevisiae; assay: activity against polyene resistant S. cerevisiae (as a group); type: cell-based; conditions: erg 2 and erg 6 strains
Excerpt: Therefore absence of erostreol results in polyene resistance.

[23] = system: Saccharomyces cerevisiae; conditions: Caccamese et al (1985); cited from earlier work
[24] = Candida albicans MTCC (Wild Type), 80 μg/disc
[25] = Candida albicans, read-out: Net zone of growth inhibition

C[C@@H]1[C@H](O)[C@@H](C)/C=C/C=C/C=C/C=C/C=C/C=C/C=C/[C@H](O[C@@H]2O[C@H](C)[C@@H](O)[C@H](N)[C@@H]2O)C[C@@H]2O[C@](O)(C[C@@H](O)C[C@@H](O)[C@H](O)CC[C@@H](O)C[C@@H](O)CC(=O)O[C@H]1C)C[C@H](O)[C@H]2C(=O)O [Amphotericin]
zone of inhibition at 80 µg/disc [1, 24]: 9 mm | zone of inhibition at 80 µg/disc [2, 25]: 12 mm | zone of inhibition at 80 µg/disc [3, 25]: 6 mm | zone of inhibition at 80 µg/disc [4, 25]: 4 mm | zone of inhibition at 80 µg/disc [5, 25]: 2 mm | zone of inhibition at 80 µg/disc [6]: 2 mm | zone of inhibition at 80 µg/disc [7]: 8 mm | Net zone of growth inhibition [8]: 6 mm | Net zone of growth inhibition [9]: 5 mm

Clc1ccccc1C(c1ccccc1)(c1ccccc1)n1ccnc1 [Clotrimazole, reference compound]
zone of inhibition at 80 µg/disc [1, 24]: 17 mm | zone of inhibition at 80 µg/disc [10, 25]: 22 mm | zone of inhibition at 80 µg/disc [11, 25]: 10 mm | zone of inhibition at 80 µg/disc [12, 25]: 12 mm | zone of inhibition at 80 µg/disc [13, 25]: 27 mm | zone of inhibition at 80 µg/disc [2, 25]: 14 mm | zone of inhibition at 80 µg/disc [3, 25]: 11 mm | zone of inhibition at 80 µg/disc [4, 25]: 19 mm | zone of inhibition at 80 µg/disc [5, 25]: 20 mm | zone of inhibition at 80 µg/disc [6]: 25 mm

COC(=O)c1c(C)cc(O)c(C)c1O [Methyl-β-orcinolcarboxylate, methyl-β-orcinolcarboxylate]
growth inhibition of the wild type strain (in words) ([1]; wild type Candida albicans): inactive | zone of inhibition at 40 µg/disc [10, 25]: 1 mm | zone of inhibition at 80 µg/disc [10, 25]: 2 mm | zone of inhibition at 320 µg/disc [10, 25]: 4 mm | zone of inhibition at 40 µg/disc [11, 25]: 2 mm | zone of inhibition at 80 µg/disc [11, 25]: 4 mm | zone of inhibition at 320 µg/disc [11, 25]: 5 mm | zone of inhibition at 40 µg/disc [12, 25]: 2 mm | zone of inhibition at 80 µg/disc [12, 25]: 5 mm | zone of inhibition at 320 µg/disc [12, 25]: 7 mm | zone of inhibition at 80 µg/disc [13, 25]: 4 mm | zone of inhibition at 320 µg/disc [13, 25]: 6 mm | zone of inhibition at 80 µg/disc [2, 25]: 4 mm | zone of inhibition at 320 µg/disc [2, 25]: 6 mm | zone of inhibition at 80 µg/disc [3, 25]: 3 mm | zone of inhibition at 320 µg/disc [3, 25]: 4 mm | zone of inhibition at 40 µg/disc [4, 25]: 2 mm | zone of inhibition at 80 µg/disc [4, 25]: 6 mm | zone of inhibition at 320 µg/disc [4, 25]: 8 mm | zone of inhibition at 40 µg/disc [5, 25]: 2 mm | zone of inhibition at 80 µg/disc [5, 25]: 7 mm | zone of inhibition at 320 µg/disc [5, 25]: 8 mm | zone of inhibition at 80 µg/disc [7]: 2 mm | Net zone of growth inhibition [8]: 6 mm | Net zone of growth inhibition [9]: 6 mm | IC50 [14]: 1 µg/mL (≈ 5.1 µM) | IC90 [14]: 5 µg/mL (≈ 25.5 µM) | IC50 [15]: 1 µg/mL (≈ 5.1 µM) | IC90 [16]: 5.5 µg/mL (≈ 28 µM) | IC50 [17]: 0.025 µg/mL (≈ 0.127 µM) | IC90 [17]: 4 µg/mL (≈ 20.4 µM) | IC50 [18]: 1.5 µg/mL (≈ 7.65 µM) | IC90 [18]: 3.5 µg/mL (≈ 17.8 µM) | IC50 [19]: 0.04 µg/mL (≈ 0.204 µM) | IC90 [19]: 4.5 µg/mL (≈ 22.9 µM) | ergosterol-binding property [20]: does not possess ergosterol-binding property | activity against drug resistant strains of C. albicans (in words) [21]: able to inhibit the growth of drug resistant strains in a dose dependant manner | growth inhibition of polyene drug resistant Saccharomyces cerevisiae (in words) [22]: able to specifically inhibit the growth | growth inhibition of yeast strains such as Saccharomyces cerevisiae (in words) [23]: inhibit the growth

C[C@@H]1[C@H](O)[C@@H](C)/C=C/C=C/CC/C=C/C=C/C=C/C=C/C(O[C@H]2O[C@H](C)[C@@H](O)[C@H](N)[C@@H]2O)CC2O[C@](O)(CC(O)C(O)CCC(O)CC(O)CC(O)CC(=O)O[C@H]1C)CC(O)C2C(=O)O (some centres unmarked) [Nystatin]
Net zone of growth inhibition [1, 24]: 22 mm | Net zone of growth inhibition ([10]; Amph A8R, 80 μg/disc): 3 mm | Net zone of growth inhibition ([11]; Amph C6R, 80 μg/disc): 4 mm | Net zone of growth inhibition ([12]; Amph C7R, 80 μg/disc): 2 mm | Net zone of growth inhibition ([13]; Amph D1R, 80 μg/disc): 4 mm | Net zone of growth inhibition ([2]; Clo 28R, 80 μg/disc): 21 mm | Net zone of growth inhibition ([3]; Clo 31R, 80 μg/disc): 17 mm | Net zone of growth inhibition ([4]; NYS 26R, 80 μg/disc): 9 mm | Net zone of growth inhibition ([5]; NYS 4R, 80 μg/disc): 8 mm | Net zone of growth inhibition ([6]; Amph 100R, 80 μg/disc): 13 mm | Net zone of growth inhibition [7]: 23 mm | Net zone of growth inhibition [8]: 16 mm | Net zone of growth inhibition [9]: 13 mm
